Data as given in patent US7189751B2, “Oxa(thia)zolidine compounds, process for preparation thereof and anti-inflammatory agents” (Nippon Soda Co., Ltd., priority 2001, dated 2007).

Experiments:
[1] = tested on: acetic acid induced writhes; assay: Acetic acid writhing; format: in vivo, mouse
Description: Pharmacological Test Example 4: Acetic Acid Wirthing
This test was carried out referring to the method of Inoue, K., Motonaga, A. & Nishimura, T (Arzneimittel Forshung/Drug Research, 41 (1): 235–239 (1991)). More specifically, 7.5 mL/kg of 0.9% acetic acid solution was injected intraperitoneally into an ICR-strain male mouse (5 to 7 weeks old), and the induced writhes (characteristic behaviors of convulsive contracting the abdomen, twisting the body and/or extending the legs) were observed. Number of writhes of each mouse was measured during 10 to 20 min. period after acetic acid administration. […] The analgesic activity of the compounds according to the present invention was evaluated on the basis of the degree of inhibiting the number writhes by the administration of the compounds. As the positive control, indomethacin or aspirin was administrated. The analgesic activity of the compounds according to the present invention measured in this test were exemplified in Table 7.

[2] = tested on: Mouse Ear Edema Induced by TPA; assay: Mouse ear edema induced by TPA; format: in vivo; conditions: for Ear Edema Inhibition (%): topical, ICR male mouse, 6 hours after TPA
Description: Pharmacological Test Example 2: Mouse Ear Edema Induced by TPA
This test was carried out referring to the method of Carlson, R. P. et al. (Agents and Actions, 17(2): 197–204 (1985).) and the method of Chang, J. (European Journal of Pharmacology, 142: 197–205 (1987).). More specifically, 5 μg/20 μL of TPA (Sigma Chemical Co.), dissolved with ethanol, was topically applied to the anterior and posterior surfaces of the right ear of an ICR-strain male mouse (6–7 weeks old). 6 hours later, the thickness of each ear at the particular part was respectively measured three times using a digimatic micrometer to calculate the mean value. Ear edema was determined by subtracting the mean thickness of the left ear as without treatment from that of the right ear as TPA-applied. Topical application activity was evaluated by applying an acetone solution of the compound of the present invention or 0.1% Tween 80/acetone solution thereof similarly to the anterior and posterior surfaces of the right ear 30 min. before and 15 min. after the TPA-application. […] Oral administration activity was evaluated by administrating 0.2% Tween 80 suspension of the compound of the present invention forcibly and perorally to the mouse an hour prior to the TPA-application. As the positive control, 100 mg/kg of Hydrocortisone (Sigma Chemical Co., H 4001) suspension was applied to the mouse similarly as for the compound of the present invention.

[3] = biological target: T1, IV-cPLA(2) in activated U937 cells (Homo sapiens, UniProt P47712); assay: PLA(2) activity: hydrolysis of bis-BODIPY FL C11-PC in TPA/A23187-activated U937 cells; format: cell-based; conditions: U-937
T1 sequence (P47712 1-749): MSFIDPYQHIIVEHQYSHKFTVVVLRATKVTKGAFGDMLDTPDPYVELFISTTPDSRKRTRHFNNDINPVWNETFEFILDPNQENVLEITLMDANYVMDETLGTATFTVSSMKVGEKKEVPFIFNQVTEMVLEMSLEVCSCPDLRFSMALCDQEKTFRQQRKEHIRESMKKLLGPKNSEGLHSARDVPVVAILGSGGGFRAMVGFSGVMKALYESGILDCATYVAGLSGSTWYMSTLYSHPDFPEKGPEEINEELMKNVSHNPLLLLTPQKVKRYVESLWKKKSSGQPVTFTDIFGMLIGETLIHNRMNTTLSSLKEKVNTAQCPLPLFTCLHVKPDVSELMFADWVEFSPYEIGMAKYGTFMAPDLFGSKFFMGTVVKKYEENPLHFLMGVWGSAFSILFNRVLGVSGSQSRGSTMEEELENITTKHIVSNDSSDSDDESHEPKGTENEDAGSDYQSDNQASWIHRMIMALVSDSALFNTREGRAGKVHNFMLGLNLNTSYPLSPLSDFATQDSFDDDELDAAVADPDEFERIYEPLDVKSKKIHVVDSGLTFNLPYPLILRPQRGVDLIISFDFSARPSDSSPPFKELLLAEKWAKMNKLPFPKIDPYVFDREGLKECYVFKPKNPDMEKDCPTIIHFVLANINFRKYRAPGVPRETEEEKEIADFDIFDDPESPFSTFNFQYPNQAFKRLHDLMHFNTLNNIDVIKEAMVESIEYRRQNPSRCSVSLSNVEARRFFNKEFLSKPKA
Description: The PLA(2) activity was measured by quantitatively analyzing the fluorescent product of hydrolysis from 1,2-bis-(4,4-difluoro-5,7-dimethyl-4-bora-3a,4a-diaza-s-indecene-3-undecanoyl)-sn-glycero-3-phosphocholine (hereinafter referred to bis-BODIPY®FL C11-PC, Molecular probes, Inc., B-7701) using activated U937 cells (human monoblastic lymphoma cell line) by inflammatory stimulus (Meshulam, T. et al., The journal of Biological Chemistry 267 (30): 21465–21470 (1992); and Solito, E. et al., British Journal of Pharmacology 124: 1675–1683(1998).). The substrate bis-BODIPY®FL C11-PC is incorporated into cellular membranes, the proximity of the BODIPY®FL fluorophores on adjacent phospholipid acyl chains causes fluorescence self-quenching. Separation of the fluorophores upon hydrolytic cleavage of one of the acyl chains by PLA(1) or the PLA(2) results in increased fluorescence. […]
The test compound was dissolved with DMSO at 30 mM, and the solution diluted with either DMSO or the Assay medium before addition into the reaction mixture. […] The increased fluorescence of the hydrolysis product by the enzyme was determined by measuring the fluorescence emission intensity at 535 nm with excitation at 485 nm from the top side of each plate at 37° C., using a Multi Functional Microplate Reader SPECTRA FLUOR PLUS (TECAN Austria GmbH). […]

## CC(=O)Oc1ccccc1C(=O)O [Aspirin, aspirin]
[1]; i.p. 30 mg/kg, 30 min before, vehicle i.p. 25.2 ± 2.2
  Number of writhes (Mean ± S.E.): 9.5 ± 2.0
[1]; p.o. 100 mg/kg, 60 min before
  Number of writhes (Mean ± S.E.): 9.5 ± 1.9

## CC(=O)OCC(=O)[C@@]1(O)[C@H](C)C[C@H]2[C@@H]3CCC4=CC(=O)C=C[C@]4(C)[C@@]3(F)[C@@H](O)C[C@@]21C [DEX-Ac, Dexamathasone-21-acetate]
[2]; mice of the TPA ear edema test
  body weight after 24 hours: reduced
[2]; 1 mg/20 μL/ear × 2
  Ear Edema Inhibition (%): 79.6%

## Cc1ccc(S(=O)(=O)C(C#N)=C2N[C@@H](C)[C@@H](c3ccc(Cl)cc3)O2)cc1 (relative stereo) [Compound 1-41, Cis-5-(4-chlorophenyl)-4-methyl-2-(1-(4-methylphenylsulfonyl)-1-cyanomethylene)-oxazolidine]
[1]; i.p. 1 mg/kg, 30 min before, vehicle i.p. 25.2 ± 2.2
  Number of writhes (Mean ± S.E.): 4.0 ± 1.9
[1]; p.o. 10 mg/kg, 120 min before, vehicle p.o. 23.5 ± 3.1
  Number of writhes (Mean ± S.E.): 1.3 ± 0.8
[3]
  inhibition at 0.1 µM: 100%
[2]; 1 mg/40 μL/ear × 2
  Ear Edema Inhibition (%): 80.5%

## COc1ccc2c(c1)c(CC(=O)O)c(C)n2C(=O)c1ccc(Cl)cc1 [Indomethacin, indomethacin]
[1]; i.p. 3 mg/kg, 30 min before, vehicle i.p. 25.2 ± 2.2
  Number of writhes (Mean ± S.E.): 13.8 ± 3.0
[1]; i.p. 10 mg/kg, 30 min before, vehicle i.p. 25.2 ± 2.2
  Number of writhes (Mean ± S.E.): 4.8 ± 0.9
[1]; p.o. 3 mg/kg, 60 min before
  Number of writhes (Mean ± S.E.): 6.8 ± 2.0
[2]; mice of the TPA ear edema test
  intoxicated symptoms: showed intoxicated symptoms
  body weight after 24 hours: reduced
[2]; 3 mg/40 μL/ear × 2
  Ear Edema Inhibition (%): 63.5%
